Results: patent publication US20110136862A1, “NOVEL TETRAMETHYL SUBSTITUTED PIPERIDINE DERIVATIVES AND THEIR USE AS MONOAMINE NEUROTRANSMITTER RE-UPTAKE INHIBITORS” (NEUROSEARCH A/S, priority 2008, published 2011)

What was measured:
Format in all cases: biochemical
[1] = biological target: T1, reuptake of dopamine (DA) in synaptosomes (Rattus norvegicus, UniProt P23977); test: Inhibition of DA reuptake in synaptosomes; details: 3H-DA, read-out: DA-uptake IC50
T1 construct: in synaptosomes as described in WO 97/16451; from tissue
Procedure: (§1) Compounds were tested for their ability to inhibit the reuptake of the monoamine neurotransmitters dopamine (DA) noradrenaline (NA) and serotonine (5-HT) in synaptosomes as described in WO 97/16451 (NeuroSearch A/S).
(§2) The test values are given as IC50 (the concentration (μM) of the test substance which inhibits the specific binding of ^3H-DA, ^3H-NA, or ^3H-5-HT by 50%).

[2] = biological target: T2, reuptake of serotonine (5-HT) in synaptosomes (Rattus norvegicus, UniProt P31652); test: Inhibition of 5-HT reuptake in synaptosomes; details: 3H-5-HT, read-out: 5-HT-uptake IC50
T2 construct: serotonine (5-HT) in synaptosomes; from tissue
Procedure: as §1, §2

[3] = biological target: T3, reuptake of noradrenaline (NA) in synaptosomes (Rattus norvegicus, UniProt Q63380); test: Inhibition of NA reuptake in synaptosomes; details: 3H-NA, read-out: NA-uptake IC50
T3 construct: in synaptosomes as described in WO 97/16451; from tissue
Procedure: as §1, §2

T3 sequence (Q63380 1-617): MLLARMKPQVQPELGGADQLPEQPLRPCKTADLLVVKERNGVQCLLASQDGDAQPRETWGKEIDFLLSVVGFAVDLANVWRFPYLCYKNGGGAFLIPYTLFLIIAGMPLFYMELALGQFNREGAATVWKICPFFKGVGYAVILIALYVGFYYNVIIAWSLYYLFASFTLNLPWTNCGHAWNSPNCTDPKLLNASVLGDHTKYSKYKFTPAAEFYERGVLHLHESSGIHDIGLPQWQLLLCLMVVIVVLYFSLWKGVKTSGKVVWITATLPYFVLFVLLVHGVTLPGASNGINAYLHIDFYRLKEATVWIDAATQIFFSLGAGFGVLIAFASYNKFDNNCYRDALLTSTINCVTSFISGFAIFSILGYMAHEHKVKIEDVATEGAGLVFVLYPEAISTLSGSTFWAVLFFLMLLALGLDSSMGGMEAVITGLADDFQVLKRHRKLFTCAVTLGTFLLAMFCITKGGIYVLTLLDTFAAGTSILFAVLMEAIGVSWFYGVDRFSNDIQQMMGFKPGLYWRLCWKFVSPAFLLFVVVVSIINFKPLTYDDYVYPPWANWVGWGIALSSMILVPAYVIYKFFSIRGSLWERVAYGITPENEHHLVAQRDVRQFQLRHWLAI
T1 sequence (P23977 whole entry): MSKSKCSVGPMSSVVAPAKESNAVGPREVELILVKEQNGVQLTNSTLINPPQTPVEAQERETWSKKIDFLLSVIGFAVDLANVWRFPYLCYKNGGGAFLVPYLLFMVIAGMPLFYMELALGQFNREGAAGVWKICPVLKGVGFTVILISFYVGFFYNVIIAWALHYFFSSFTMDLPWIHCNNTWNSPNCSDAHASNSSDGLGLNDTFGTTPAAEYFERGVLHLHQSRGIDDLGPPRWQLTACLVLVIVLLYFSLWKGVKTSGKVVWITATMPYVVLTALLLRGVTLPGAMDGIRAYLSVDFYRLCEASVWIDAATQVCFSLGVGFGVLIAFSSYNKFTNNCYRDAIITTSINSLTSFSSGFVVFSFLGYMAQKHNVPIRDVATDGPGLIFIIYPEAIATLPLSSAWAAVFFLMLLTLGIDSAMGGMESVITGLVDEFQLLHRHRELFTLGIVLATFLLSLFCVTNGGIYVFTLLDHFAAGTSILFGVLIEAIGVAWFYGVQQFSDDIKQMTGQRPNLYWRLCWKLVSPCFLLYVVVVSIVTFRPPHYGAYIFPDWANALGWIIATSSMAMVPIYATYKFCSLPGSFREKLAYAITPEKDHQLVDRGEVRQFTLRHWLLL
T2 sequence (P31652 whole entry): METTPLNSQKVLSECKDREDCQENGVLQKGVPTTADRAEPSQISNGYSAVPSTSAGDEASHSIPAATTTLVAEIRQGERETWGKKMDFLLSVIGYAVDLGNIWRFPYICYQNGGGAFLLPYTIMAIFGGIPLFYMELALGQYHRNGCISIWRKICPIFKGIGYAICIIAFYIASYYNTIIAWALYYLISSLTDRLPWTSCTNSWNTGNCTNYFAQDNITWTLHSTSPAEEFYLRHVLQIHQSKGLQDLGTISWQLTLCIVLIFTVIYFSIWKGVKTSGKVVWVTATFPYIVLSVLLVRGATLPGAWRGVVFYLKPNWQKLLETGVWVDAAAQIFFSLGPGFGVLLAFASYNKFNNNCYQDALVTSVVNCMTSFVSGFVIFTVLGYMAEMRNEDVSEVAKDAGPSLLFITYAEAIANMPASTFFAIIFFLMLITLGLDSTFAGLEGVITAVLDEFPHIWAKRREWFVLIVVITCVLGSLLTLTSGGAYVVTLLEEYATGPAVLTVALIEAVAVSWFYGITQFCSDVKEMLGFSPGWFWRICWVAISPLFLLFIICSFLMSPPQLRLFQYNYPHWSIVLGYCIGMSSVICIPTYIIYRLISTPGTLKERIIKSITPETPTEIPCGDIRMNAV

Compound	IC50 [1] [nM]	IC50 [2] [nM]	IC50 [3] [nM]
CC1(C)CC(Oc2ccc3cc(O)ccc3n2)CC(C)(C)N1 [2-(2,2,6,6-Tetramethyl-piperidin-4-yloxy)-quinolin-6-ol]	78	13	130
CC1(C)CC(Oc2ccc3ccccc3n2)CC(C)(C)N1 [2-(2,2,6,6-Tetramethyl-piperidin-4-yloxy)-quinoline]	180	0.68	13
